The values below come from US8906889B2, “C-3 cycloalkenyl triterpenoids with HIV maturation inhibitory activity” (priority 2012, dated 2014).

The subject of this test is recombinant NL4-3 virus (Renilla luciferase, Gag P373S). In words: HIV cell culture assay (luciferase reporter, MT-2 cells). The test is classed as cell-based. The note with it: Renilla, NL43, MT-2 cells infected for 4-5 days with NLRluc recombinants; luciferase activity. An outline of the steps:
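MT-2 cells were infected for 4–5 days with NL4-3 carrying Renilla luciferase in place of part of nef and the Gag P373S change, in the presence of serially diluted inhibitor. Antiviral activity was quantified as luciferase signal from Dual Luciferase reagent.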
For `C=C(C)[C@@H]1CC[C@]2(NCCN3CCS(=O)(=O)CC3)CC[C@]3(C)[C@H](CC[C@@H]4[C@@]5(C)CC=C(C6=CCC(C#N)(C(=O)O)CC6)C(C)(C)[C@@H]5CC[C@]43C)[C@@H]12` (stereo partly drawn) [Example A5, 1-cyano-4-((1R,3aS,5aR,5bR,7aR,11aS,11bR,13aR,13bR)-3a-((2-(1,1-dioxidothiomorpholino)ethyl)amino)-5a,5b,8,8,11a-pentamethyl-1-(prop-1-en-2-yl)-2,3,3a,4,5,5a,5b,6,7,7a,8,11,11a,11b,12,13,13a,13b-octadecahydro-1H-cyclopenta[a]chrysen-9-yl)cyclohex-3-enecarboxylic acid], the concentration giving a half-maximal response (EC50) was 4.26 nM. Under `C=C(C)[C@@H]1CC[C@]2(NCCN3CCS(=O)(=O)CC3)CC[C@]3(C)[C@H](CC[C@@H]4[C@@]5(C)CC=C(C6=CCC(Cl)(C(=O)O)CC6)C(C)(C)[C@@H]5CC[C@]43C)[C@@H]12` (stereo partly drawn) [Example A7, 1-chloro-4-((1R,3aS,5aR,5bR,7aR,11aS,11bR,13aR,13bR)-3a-((2-(1,1-dioxidothiomorpholino)ethyl)amino)-5a,5b,8,8,11a-pentamethyl-1-(prop-1-en-2-yl)-2,3,3a,4,5,5a,5b,6,7,7a,8,11,11a,11b,12,13,13a,13b-octadecahydro-1H-cyclopenta[a]chrysen-9-yl)cyclohex-3-enecarboxylic acid] stands 2.91 nM; under `C=C(C)[C@@H]1CC[C@]2(NCCN3CCC(S(C)(=O)=O)CC3)CC[C@]3(C)[C@H](CC[C@@H]4[C@@]5(C)CC=C(C6=CCC(F)(C(=O)O)CC6)C(C)(C)[C@@H]5CC[C@]43C)[C@@H]12` (stereo partly drawn) [Example A9, 1-fluoro-4-((1R,3aS,5aR,5bR,7aR,11aS,11bR,13aR,13bR)-5a,5b,8,8,11a-pentamethyl-3a-((2-(4-(methylsulfonyl)piperidin-1-yl)ethyl)amino)-1-(prop-1-en-2-yl)-2,3,3a,4,5,5a,5b,6,7,7a,8,11,11a,11b,12,13,13a,13b-octadecahydro-1H-cyclopenta[a]chrysen-9-yl)cyclohex-3-enecarboxylic acid], 2.84 nM; under `C=C(C)[C@@H]1CC[C@]2(NCCN3CCS(=O)(=O)CC3)CC[C@]3(C)[C@H](CC[C@@H]4[C@@]5(C)CC=C(C6=CCC(CCO)(C(=O)O)CC6)C(C)(C)[C@@H]5CC[C@]43C)[C@@H]12` (stereo partly drawn) [Example A10, 4-((1R,3aS,5aR,5bR,7aR,11aS,11bR,13aR,13bR)-3a-((2-(1,1-dioxidothiomorpholino)ethyl)amino)-5a,5b,8,8,11a-pentamethyl-1-(prop-1-en-2-yl)-2,3,3a,4,5,5a,5b,6,7,7a,8,11,11a,11b,12,13,13a,13b-octadecahydro-1H-cyclopenta[a]chrysen-9-yl)-1-(2-hydroxyethyl)cyclohex-3-enecarboxylic acid], 4.86 nM.

Turning to `C=C(C)[C@@H]1CC[C@]2(NCCN3CCS(=O)(=O)CC3)CC[C@]3(C)[C@H](CC[C@@H]4[C@@]5(C)CC=C(C6=CCC(CO)(C(=O)O)CC6)C(C)(C)[C@@H]5CC[C@]43C)[C@@H]12` (stereo partly drawn) [Example A12, 4-((1R,3aS,5aR,5bR,7aR,11aS,11bR,13aR,13bR)-3a-((2-(1,1-dioxidothiomorpholino)ethyl)amino)-5a,5b,8,8,11a-pentamethyl-1-(prop-1-en-2-yl)-2,3,3a,4,5,5a,5b,6,7,7a,8,11,11a,11b,12,13,13a,13b-octadecahydro-1H-cyclopenta[a]chrysen-9-yl)-1-(hydroxymethyl)cyclohex-3-enecarboxylic acid], the EC50 is 2.46 nM.

Regarding `C=C(C)[C@@H]1CC[C@]2(CNCCCN3CCS(=O)(=O)CC3)CC[C@]3(C)[C@H](CC[C@@H]4[C@@]5(C)CC=C(C6=CC7(C6)CC(C(=O)O)(C(=O)O)C7)C(C)(C)[C@@H]5CC[C@]43C)[C@@H]12` [Example A14, 6-((1R,3aS,5aR,5bR,7aR,11aS,11bR,13aR,13bR)-3a-(((3-(1,1-dioxidothiomorpholino)propyl)amino)methyl)-5a,5b,8,8,11a-pentamethyl-1-(prop-1-en-2-yl)-2,3,3a,4,5,5a,5b,6,7,7a,8,11,11a,11b,12,13,13a,13b-octadecahydro-1H-cyclopenta[a]chrysen-9-yl)spiro[3.3]hept-5-ene-2,2-dicarboxylic acid], the EC50 was 190 nM. Turning to `C=C(C)[C@@H]1CC[C@]2(NCCN3CCS(=O)(=O)CC3)CC[C@]3(C)[C@H](CC[C@@H]4[C@@]5(C)CC=C(C6=CC(C)=C(C(=O)O)CC6)C(C)(C)[C@@H]5CC[C@]43C)[C@@H]12` [Example A16, 4-((1R,3aS,5aR,5bR,7aR,11aS,11bR,13aR,13bR)-3a-((2-(1,1-dioxidothiomorpholino)ethyl)amino)-5a,5b,8,8,11a-pentamethyl-1-(prop-1-en-2-yl)-2,3,3a,4,5,5a,5b,6,7,7a,8,11,11a,11b,12,13,13a,13b-octadecahydro-1H-cyclopenta[a]chrysen-9-yl)-2-methylcyclohexa-1,3-dienecarboxylic acid], the EC50 worked out at 2.23 nM. Under `C=C(C)[C@@H]1CC[C@]2(NCCN3CCS(=O)(=O)CC3)CC[C@]3(C)[C@H](CC[C@@H]4[C@@]5(C)CC=C(C6=COC(C)(C(=O)O)OC6)C(C)(C)[C@@H]5CC[C@]43C)[C@@H]12` (stereo partly drawn) [Example A17, 5-((1R,3aS,5aR,5bR,7aR,11aS,11bR,13aR,13bR)-3a-((2-(1,1-dioxidothiomorpholino)ethyl)amino)-5a,5b,8,8,11a-pentamethyl-1-(prop-1-en-2-yl)-2,3,3a,4,5,5a,5b,6,7,7a,8,11,11a,11b,12,13,13a,13b-octadecahydro-1H-cyclopenta[a]chrysen-9-yl)-2-methyl-4H-1,3-dioxine-2-carboxylic acid] stands 320 nM; under `C=C(C)[C@@H]1CC[C@]2(NCCN3CCS(=O)(=O)CC3)CC[C@]3(C)[C@H](CC[C@@H]4[C@@]5(C)CC=C(C6=CC(C(=O)O)CC6)C(C)(C)[C@@H]5CC[C@]43C)[C@@H]12` (stereo partly drawn) [Example A21, 3-((1R,3aS,5aR,5bR,7aR,11aS,11bR,13aR,13bR)-3a-((2-(1,1-dioxidothiomorpholino)ethyl)amino)-5a,5b,8,8,11a-pentamethyl-1-(prop-1-en-2-yl)-2,3,3a,4,5,5a,5b,6,7,7a,8,11,11a,11b,12,13,13a,13b-octadecahydro-1H-cyclopenta[a]chrysen-9-yl)cyclopent-2-enecarboxylic acid], 2.76 nM. The same measure for `C=C(C)[C@@H]1CC[C@]2(NCCN3CCS(=O)(=O)CC3)CC[C@]3(C)[C@H](CC[C@@H]4[C@@]5(C)CC=C(C6=CCC(C(=O)O)C6)C(C)(C)[C@@H]5CC[C@]43C)[C@@H]12` (stereo partly drawn) [Example A22, 3-((1R,3aS,5aR,5bR,7aR,11aS,11bR,13aR,13bR)-3a-((2-(1,1-dioxidothiomorpholino)ethyl)amino)-5a,5b,8,8,11a-pentamethyl-1-(prop-1-en-2-yl)-2,3,3a,4,5,5a,5b,6,7,7a,8,11,11a,11b,12,13,13a,13b-octadecahydro-1H-cyclopenta[a]chrysen-9-yl)cyclopent-3-enecarboxylic acid]: 3.53 nM; for `C=C(C)[C@@H]1CC[C@]2(NCCN3CCS(=O)(=O)CC3)CC[C@]3(C)[C@H](CC[C@@H]4[C@@]5(C)CC=C(C6=CCC(CC(=O)O)CC6)C(C)(C)[C@@H]5CC[C@]43C)[C@@H]12` (stereo partly drawn) [Example A25, 2-(4-((1R,3aS,5aR,5bR,7aR,11aS,11bR,13aR,13bR)-3a-((2-(1,1-dioxidothiomorpholino)ethyl)amino)-5a,5b,8,8,11a-pentamethyl-1-(prop-1-en-2-yl)-2,3,3a,4,5,5a,5b,6,7,7a,8,11,11a,11b,12,13,13a,13b-octadecahydro-1H-cyclopenta[a]chrysen-9-yl)cyclohex-3-en-1-yl)acetic acid]: 1.31 nM; for `C=C(C)[C@@H]1CC[C@]2(NCCN3CCS(=O)(=O)CC3)CC[C@]3(C)[C@H](CC[C@@H]4[C@@]5(C)CC=C(C6=CC=C(C(=O)O)CC6)C(C)(C)[C@@H]5CC[C@]43C)[C@@H]12` [Example A29, 4-((1R,3aS,5aR,5bR,7aR,11aS,11bR,13aR,13bR)-3a-((2-(1,1-dioxidothiomorpholino)ethyl)amino)-5a,5b,8,8,11a-pentamethyl-1-(prop-1-en-2-yl)-2,3,3a,4,5,5a,5b,6,7,7a,8,11,11a,11b,12,13,13a,13b-octadecahydro-1H-cyclopenta[a]chrysen-9-yl)cyclohexa-1,3-dienecarboxylic acid]: 1.37 nM. Under `C=C(C)[C@@H]1CC[C@]2(NCCS(=O)(=O)c3ccccc3)CC[C@]3(C)[C@H](CC[C@@H]4[C@@]5(C)CC=C(C6=CC=C(C(=O)O)CC6)C(C)(C)[C@@H]5CC[C@]43C)[C@@H]12` [Example A30, 4-((1R,3aS,5aR,5bR,7aR,11aS,11bR,13aR,13bR)-5a,5b,8,8,11a-pentamethyl-3a-((2-(phenylsulfonyl)ethyl)amino)-1-(prop-1-en-2-yl)-2,3,3a,4,5,5a,5b,6,7,7a,8,11,11a,11b,12,13,13a,13b-octadecahydro-1H-cyclopenta[a]chrysen-9-yl)cyclohexa-1,3-dienecarboxylic acid] stands 90 nM; under `C=C(C)[C@@H]1CC[C@]2(NCCN3CCS(=O)(=O)CC3)CC[C@]3(C)[C@H](CC[C@@H]4[C@@]5(C)CC=C(C6=CCC(NC(C)=O)(C(=O)O)CC6)C(C)(C)[C@@H]5CC[C@]43C)[C@@H]12` (stereo partly drawn) [Example A31, 1-acetamido-4-((1R,3aS,5aR,5bR,7aR,11aS,11bR,13aR,13bR)-3a-((2-(1,1-dioxidothiomorpholino)ethyl)amino)-5a,5b,8,8,11a-pentamethyl-1-(prop-1-en-2-yl)-2,3,3a,4,5,5a,5b,6,7,7a,8,11,11a,11b,12,13,13a,13b-octadecahydro-1H-cyclopenta[a]chrysen-9-yl)cyclohex-3-enecarboxylic acid], 10 nM.

Usually EC50 stands for the midpoint of the concentration-response curve.
